Test results taken from patent publication US20240140991A1, “ANTIBIOTIC NATURAL PRODUCT ANALOGUES” (THE QUEEN'S UNIVERSITY OF BELFAST, priority 2021, published 2024).
Values after ≈ are worked out from the molar mass of the structure shown. Positions of bridges follow the written chain, without caps; N, C: chain ends. Non-standard residues stand in square brackets, D forms with d. Residues, ends and D or L forms follow the SMILES beside them. ξ: configuration not given here. *: point of attachment. Hexanoyl(4ξ-Me) = CCC(C)CCC(=O)*; Myristoyl = CCCCCCCCCCCCCC(=O)*; dOrn = NCCC[C@@H](N)C(=O)O; Octanoyl = CCCCCCCC(=O)*; Orn = NCCC[C@H](N)C(=O)O; Dap = NC[C@H](N)C(=O)O; Alloc = C=CCOC(=O)*

Legend:
[1] = tested on: E. coli; assay type: cell-based
Method: (§1) Minimum inhibitory concentration (MIC) was determined by broth microdilution according to CLSI guidelines. Blood agar plates were inoculated with glycerol stocks of Escherichia coli ATCC 25922, E. coli ATCC 25922 MCR-1, E. coli MCR-1 (clinical isolate from Utrecht Medical Center, NL), E. coli EQAS MCR-2 (clinical isolate from Wageningen University and Research, NL), Kiebsielia pneumoniae ATCC 11228, K. pneumoniae ATCC 13883, K. pneumonia 2048 (clinical isolate from Vrije Universiteit Amsterdam Medical Center, NL), K. pneumonia JS-123 (clinical isolate from Utrecht Medical Center, NL), Acinetobacter baumannii ATCC 17961, A. baumannil ATCC 17978, A. baumannii 2018-006 (clinical isolate from Rijksinstituut voor Volksgezondheid en Milieu, NL), A. baumannii MDR (clinical isolate from Vrije Universiteit Amsterdam Medical Center, NL), Pseudomonas aeruginosa ATCC 27853, P. aeruginosa PAO1, P. aeruginosa NRZ-03961 (Reference strain from Das Nationale Referenzzentrum für gramnegative Krankenhauserreger, DE), P. aeruginosa M-120 (clinical isolate from Leiden University Medical Center, NL) and Staphylococcus aureus USA300 (clinical isolate from Texas Children's Hospitalm, USA). E. coli 25922 MCR1 was grown on LB agar supplemented with kanamycin. The inoculated agar plates were then incubated for 16 hours at 37° C. Individually grown colonies were subsequently used to inoculate 3 mL aliquots of TSB that were then incubated at 37° C. with shaking at 220 rpm. In parallel, the compounds to be assessed were serially diluted with Mueller-Hinton broth (MHB) in polypropylene 96-well plates (50 μL in each well). Once the OD600 of the bacterial suspensions reached 0.5, the bacteria were diluted with MHB (final concentration 2×10^5 CFU mL^−1) and added to the microplates containing the test compounds (50 μL to each well, final volume: 100 μL). The well-plates were sealed with an adhesive membrane and after 16 hours of incubation at 37° C. with shaking at 220 rpm the wells were visually inspected for bacterial growth. MIC values were defined as the lowest concentration of the compound that prevented visible growth of bacteria.
MIC values were determined for the lipid analogues of brevicidine.
MIC values were determined for the position 9 analogues of linear brevicidine.

[2] = tested on: E. Coli NCTC 12241; assay type: cell-based
Method: as §1
were tested for inhibition of E. Coli NCTC 12241.

[3] = tested on: Escherichia coli ATCC 25922; assay type: cell-based; conditions: ATCC 25922
Procedure, shortened: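 Broth microdilution in MHB per CLSI; inoculum 2×10^5 CFU mL^−1 from log-phase TSB cultures at OD600 0.5. Plates incubated 16 hours at 37° C with shaking at 220 rpm. MIC is the lowest concentration preventing visible growth.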

[4] = tested on: A. baumannii ATCC 17978; assay type: cell-based, Acinetobacter baumannii; conditions: ATCC 17978
Method: as §1

[5] = tested on: K. pneumoniae ATCC 11228; assay type: cell-based, Klebsiella pneumoniae; conditions: ATCC 11228
Method: as §1

[6] = tested on: P. aeruginosa PAO1; assay type: cell-based, Pseudomonas aeruginosa; conditions: PAO1
Method: as §1

| E. coli MIC [1] | E. coli MIC [2] | Minimum inhibitory concentration (MIC) [3] | Minimum inhibitory concentration (MIC) [4] | Minimum inhibitory concentration (MIC) [5] | Minimum inhibitory concentration (MIC) [6] | Compound |
| --- | --- | --- | --- | --- | --- | --- |
| 3.1 µg/mL | 3.1 µg/mL |  |  |  |  | CCC(C)CCC(=O)N[C@H](CC(N)=O)C(=O)N[C@H](Cc1ccc(O)cc1)C(=O)N[C@H](Cc1c[nH]c2ccccc12)C(=O)N[C@H](CCCN)C(=O)N[C@@H](CCCN)C(=O)NCC(=O)N[C@H](CCCN)C(=O)N[C@@H](Cc1c[nH]c2ccccc12)C(=O)N[C@@H](CN)C(=O)N[C@H](C(=O)NCC(N)=O)[C@@H](C)CC (stereo partly shown) [Und(9-Dap)-NH2] ({Hexanoyl(4ξ-Me)}-[dN][dY][dW][dOrn][Orn]G[dOrn]W[Dap]IG-NH2) |
| 1.56 µg/mL | 1.56 µg/mL |  |  |  |  | CCC(C)CCC(=O)N[C@H](CC(N)=O)C(=O)N[C@H](Cc1ccc(O)cc1)C(=O)N[C@H](Cc1c[nH]c2ccccc12)C(=O)N[C@H](CCCN)C(=O)N[C@@H](CCCN)C(=O)NCC(=O)N[C@H](CCCN)C(=O)N[C@@H](Cc1c[nH]c2ccccc12)C(=O)N[C@H](C(=O)N[C@H](C(=O)NCC(N)=O)[C@@H](C)CC)[C@@H](C)O (stereo partly shown) [Und(9-Thr)-NH2] ({Hexanoyl(4ξ-Me)}-[dN][dY][dW][dOrn][Orn]G[dOrn]WTIG-NH2) |
|  | 12.5 µg/mL |  |  |  |  | C=CCOC(=O)NC[C@H](NC(=O)[C@H](Cc1c[nH]c2ccccc12)NC(=O)[C@@H](CCCN)NC(=O)CNC(=O)[C@H](CCCN)NC(=O)[C@@H](CCCN)NC(=O)[C@@H](Cc1c[nH]c2ccccc12)NC(=O)[C@@H](Cc1ccc(O)cc1)NC(=O)[C@@H](CC(N)=O)NC(=O)CCCCCCC)C(=O)N[C@H](C(=O)NCC(=O)O)[C@@H](C)CC [Oct- Dap(Alloc) OH] (Octanoyl-[dN][dY][dW][dOrn][Orn]G[dOrn]W[Dap](Alloc)IG-OH) |
| 0.78 µg/mL | 0.78 µg/mL |  |  |  |  | CCC(C)CCC(=O)N[C@H](CC(N)=O)C(=O)N[C@H](Cc1ccc(O)cc1)C(=O)N[C@H](Cc1c[nH]c2ccccc12)C(=O)N[C@H](CCCN)C(=O)N[C@@H](CCCN)C(=O)NCC(=O)N[C@H](CCCN)C(=O)N[C@@H](Cc1c[nH]c2ccccc12)C(=O)N[C@@H](CO)C(=O)N[C@H](C(=O)NCC(N)=O)[C@@H](C)CC (stereo partly shown) [Und(9-Ser)-NH2] ({Hexanoyl(4ξ-Me)}-[dN][dY][dW][dOrn][Orn]G[dOrn]WSIG-NH2) |
|  | 0.4 µg/mL |  |  |  |  | C=CCOC(=O)NC[C@H](NC(=O)[C@H](Cc1c[nH]c2ccccc12)NC(=O)[C@@H](CCCN)NC(=O)CNC(=O)[C@H](CCCN)NC(=O)[C@@H](CCCN)NC(=O)[C@@H](Cc1c[nH]c2ccccc12)NC(=O)[C@@H](Cc1ccc(O)cc1)NC(=O)[C@@H](CC(N)=O)NC(=O)CCCCCCC)C(=O)N[C@H](C(=O)NCC(N)=O)[C@@H](C)CC [Oct Dap(Alloc) NH2] (Octanoyl-[dN][dY][dW][dOrn][Orn]G[dOrn]W[Dap](Alloc)IG-NH2) |
|  |  | 16 µg/mL (≈ 10.6 µM) | 64 µg/mL (≈ 42.5 µM) | 16 µg/mL (≈ 10.6 µM) | 16 µg/mL (≈ 10.6 µM) | CC[C@H](C)[C@@H]1NC(=O)[C@@H](NC(=O)[C@H](Cc2c[nH]c3ccccc23)NC(=O)[C@@H](CCCN)NC(=O)CNC(=O)[C@H](CCCN)NC(=O)[C@@H](CCCN)NC(=O)[C@@H](Cc2c[nH]c3ccccc23)NC(=O)[C@@H](Cc2ccc(O)cc2)NC(=O)[C@@H](CO)NC(C)=O)[C@@H](C)OC(=O)CNC(=O)CNC(=O)[C@H](CC(N)=O)NC1=O [Compound C2] (Ac-[dS][dY][dW][dOrn][Orn]G[dOrn]WTINGG; ester 9-C) |
|  | 1.6 µg/mL |  |  |  |  | C=CCOC(=O)NC[C@H](NC(=O)[C@H](Cc1c[nH]c2ccccc12)NC(=O)[C@@H](CCCN)NC(=O)CNC(=O)[C@H](CCCN)NC(=O)[C@@H](CCCN)NC(=O)[C@@H](Cc1c[nH]c2ccccc12)NC(=O)[C@@H](Cc1ccc(O)cc1)NC(=O)[C@@H](CC(N)=O)NC(=O)CCC(C)CC)C(=O)N[C@H](C(=O)NCC(=O)O)[C@@H](C)CC (stereo partly shown) [MeHex- Dap(Alloc) OH] ({Hexanoyl(4ξ-Me)}-[dN][dY][dW][dOrn][Orn]G[dOrn]W[Dap](Alloc)IG-OH) |
|  | 50 µg/mL |  |  |  |  | CCC(C)CCC(=O)N[C@H](CC(N)=O)C(=O)N[C@H](Cc1ccc(O)cc1)C(=O)N[C@H](Cc1c[nH]c2ccccc12)C(=O)N[C@H](CCCN)C(=O)N[C@@H](CCCN)C(=O)NCC(=O)N[C@H](CCCN)C(=O)N[C@@H](Cc1c[nH]c2ccccc12)C(=O)N[C@@H](C)C(=O)N[C@H](C(=O)NCC(=O)O)[C@@H](C)CC (stereo partly shown) [MeHex- Ala OH] ({Hexanoyl(4ξ-Me)}-[dN][dY][dW][dOrn][Orn]G[dOrn]WAIG-OH) |
|  |  | 0.5 to 1 µg/mL | 0.5 to 1 µg/mL | 0.5 to 1 µg/mL | 1 µg/mL (≈ 0.629 µM) | CCCCCCCC(=O)N[C@H](CO)C(=O)N[C@H](Cc1ccc(O)cc1)C(=O)N[C@H](Cc1c[nH]c2ccccc12)C(=O)N[C@H](CCCN)C(=O)N[C@@H](CCCN)C(=O)NCC(=O)N[C@H](CCCN)C(=O)N[C@@H](Cc1c[nH]c2ccccc12)C(=O)N[C@@H]1C(=O)N[C@@H]([C@@H](C)CC)C(=O)N[C@@H](CC(N)=O)C(=O)NCC(=O)NCC(=O)O[C@@H]1C [Compound C8] (Octanoyl-[dS][dY][dW][dOrn][Orn]G[dOrn]WTINGG; ester 9-C) |
|  |  | 8 µg/mL (≈ 4.78 µM) | 4 µg/mL (≈ 2.39 µM) | 8 µg/mL (≈ 4.78 µM) | 8 µg/mL (≈ 4.78 µM) | CCCCCCCCCCCCCC(=O)N[C@H](CO)C(=O)N[C@H](Cc1ccc(O)cc1)C(=O)N[C@H](Cc1c[nH]c2ccccc12)C(=O)N[C@H](CCCN)C(=O)N[C@@H](CCCN)C(=O)NCC(=O)N[C@H](CCCN)C(=O)N[C@@H](Cc1c[nH]c2ccccc12)C(=O)N[C@@H]1C(=O)N[C@@H]([C@@H](C)CC)C(=O)N[C@@H](CC(N)=O)C(=O)NCC(=O)NCC(=O)O[C@@H]1C [Compound C14] (Myristoyl-[dS][dY][dW][dOrn][Orn]G[dOrn]WTINGG; ester 9-C) |
|  |  | 32 µg/mL (≈ 21.8 µM) | >64 µg/mL | >64 µg/mL | 64 µg/mL (≈ 43.7 µM) | CC[C@H](C)[C@@H]1NC(=O)[C@@H](NC(=O)[C@H](Cc2c[nH]c3ccccc23)NC(=O)[C@@H](CCCN)NC(=O)CNC(=O)[C@H](CCCN)NC(=O)[C@@H](CCCN)NC(=O)[C@@H](Cc2c[nH]c3ccccc23)NC(=O)[C@@H](Cc2ccc(O)cc2)NC(=O)[C@H](N)CO)[C@@H](C)OC(=O)CNC(=O)CNC(=O)[C@H](CC(N)=O)NC1=O [NH2] (H-[dS][dY][dW][dOrn][Orn]G[dOrn]WTINGG; ester 9-C) |
|  | 25 µg/mL |  |  |  |  | CCCCCCCC(=O)N[C@H](CC(N)=O)C(=O)N[C@H](Cc1ccc(O)cc1)C(=O)N[C@H](Cc1c[nH]c2ccccc12)C(=O)N[C@H](CCCN)C(=O)N[C@@H](CCCN)C(=O)NCC(=O)N[C@H](CCCN)C(=O)N[C@@H](Cc1c[nH]c2ccccc12)C(=O)N[C@@H](C)C(=O)N[C@H](C(=O)NCC(=O)O)[C@@H](C)CC [Oct- Ala OH] (Octanoyl-[dN][dY][dW][dOrn][Orn]G[dOrn]WAIG-OH) |
|  | 0.19 µg/mL |  |  |  |  | C=CCOC(=O)NC[C@H](NC(=O)[C@H](Cc1c[nH]c2ccccc12)NC(=O)[C@@H](CCCN)NC(=O)CNC(=O)[C@H](CCCN)NC(=O)[C@@H](CCCN)NC(=O)[C@@H](Cc1c[nH]c2ccccc12)NC(=O)[C@@H](Cc1ccc(O)cc1)NC(=O)[C@@H](CC(N)=O)NC(=O)CCC(C)CC)C(=O)N[C@H](C(=O)NCC(N)=O)[C@@H](C)CC (stereo partly shown) [MeHex- Dap(Alloc) NH2] ({Hexanoyl(4ξ-Me)}-[dN][dY][dW][dOrn][Orn]G[dOrn]W[Dap](Alloc)IG-NH2) |
